# Source: patent US20150011501A1, “PARTIALLY DEPOLYMERIZED GLYCOSAMINOGLYCAN SILVER AND GOLD SALTS” (priority 2012, published 2015)
# Key:
# S. Aureus = experiment: Test of antimicrobial activity (halo diameter on plate); assay type: cell-based; set-up: unit not given here; settings: chondroitin sulfate products 10% w/v, hyaluronic acid products 1.4% w/v in water
# From the text: (§1) The objective of the test was to verify the antimicrobial activity with the microorganisms E. Coli and S. Aureus. For this purpose, solutions in water of the following products were separately prepared: • Commercially available sodium chondroitin sulfate of marine origin having a molecular weight between 25,000 and 40,000 Daltons. Product described in European Pharmacopeia (01/2009:2064) (comparative example 10); • High molecular weight silver chondroitin sulfate (comparative example 8); • Partially depolymerized silver chondroitin sulfate (example 1); • High molecular weight silver hyaluronate (comparative example 9); • Partially depolymerized silver hyaluronate (example 2); • AgNO3 (comparative example 11); • Partially depolymerized gold chondroitin sulfate (example 3); • Partially depolymerized gold hyaluronate (example 4); and • Mixture of 1 g of commercially available sodium chondroitin sulfate of marine origin having a molecular weight between 25,000 and 40,000 Daltons and 0.1 g of AgNO3 (comparative example 12).
# (§2) The products derived from chondroitin sulfate were dissolved at 10% (weight/volume). The products derived from hyaluronic acid were dissolved at 1.4% (weight/volume). For the rest of products water was added until complete dissolution.
# (§3) Each of the products was applied, as well as a control (water), to a plate with S. Aureus and E. Coli. The products were incubated under standard conditions for S. Aureus and E. Coli. The results were expressed in areolar or halo diameter and were the following: for the comparative example 10 it was 0 in E. Coli and 0 in S. Aureus; for the comparative example 8 it was 7 in E. Coli and 8 in S. Aureus; for the example 1 it was 7 in E. Coli and 6 in S. Aureus; for the comparative example 9 it was 8 in E. Coli and 8 in S. Aureus; for the example 2 it was 7 in E. Coli and 6 in S. Aureus; for the comparative example 11 it was 8 in E. Coli and 6 in S. Aureus; for the example 3 it was 9 in E. Coli and 8 in S. Aureus; for the control it was 0 in E. Coli and 0 in S. Aureus; for the example 4 it was 4 in E. Coli and 6 in S. Aureus; and for the comparative example 12 it was 7 in E. Coli and 5 in S. Aureus.
# E. Coli = experiment: as above; assay type: cell-based; set-up: unit not given here; settings: chondroitin sulfate products 10% w/v, hyaluronic acid products 1.4% w/v in water
# From the text: as §1, §2, §3
# [1] = Preliminary test of toxicology (topical): side effects by visual inspection; assay type: in vivo
# Description: (§4) The aim of this test was to assess the toxicity (topical) and effectiveness in burns. The side effects that the different products could cause including irritation, inflammation and/or darkening were assessed by visual inspection and photographs. The products assessed were the following: • Commercially available sodium chondroitin sulfate of marine origin having a molecular weight between 25,000 and 40,000 Daltons. Product described in European Pharmacopeia (01/2009:2064) (comparative example 10); • Partially depolymerized silver chondroitin sulfate (example 1); • Partially depolymerized silver chondroitin sulfate dissolved/mixed in a moisturizing cream (example 1c); • Partially depolymerized silver hyaluronate (example 2); • AgNO3 (comparative example 11); and • Partially depolymerized gold chondroitin sulfate (example 3).
# (§5) The products derived from chondroitin sulfate were dissolved in water at 10% (weight/volume). The products derived from hyaluronic acid were dissolved at 1.4% (weight/volume). For the silver nitrate water was added until complete dissolution. The product of example 1c was mixed with a moisturizing cream.
# All the products were applied in the “upper area of the arm” (upper biceps) and in the abdomen (area of the ribs). The products of examples 1, 2 and 3 were also applied in the “lower area of the arm”. The visual inspections were carried out with the following frequency after the application: 10 minutes, 30 minutes, 60 minutes, 8 h, 3 days, 4 days, 7 days and 9 days.
# The treated areas were exposed to different types of light (solar, incandescent bulb, fluorescent) for 10 minutes. Darkening was not observed in any case. The abdomen was protected from the light after 10 minutes. The “upper area of the arm” was left under light exposure up to 8 hours. The “lower area of the arm” had continuous exposure to ambient light.
# [2] = Viscosity test (dissolution time, appearance, displacement time); assay type: physicochemical; settings: 0.01 g in 0.5 mL water, tube inverted (180° rotation)
# From the text: The objective of the test was to verify that the viscosity of the partially depolymerized products obtained is lower than the viscosity of the starting products (non-depolymerized). The products assessed were the following: • High molecular weight silver chondroitin sulfate (comparative example 8); • Partially depolymerized silver chondroitin sulfate (example 1); • High molecular weight silver hyaluronate (comparative example 9) and • Partially depolymerized silver hyaluronate (example 2).
# The following parameters were assessed: dissolution time, appearance (visual method) and displacement time.
# 0.01 g of each product was dissolved separately in 0.5 mL of distilled water in test tubes of 11.5 cm of length and 1 cm of diameter. Once the products were completely dissolved, the position of the tubes was inverted to check the displacement time.
# [3] = Stability test (visual inspection of colour in the dark and under ambient light); assay type: physicochemical; settings: precipitated product
# Description: After this time, a visual inspection of the products was carried out and the products were protected in the dark again. After 12 hours, another visual inspection of the products was carried out. The products were then exposed to ambient light. After 5 hours, a visual inspection of the products was carried out.
# [4] = Preliminary test of effectiveness in burns; assay type: in vivo; settings: for efficacy in skin surfaces with burns or wounds: overall conclusion
# Description: as §4, §5
# In the application of the product of the comparative example 11 irritation was observed both in the “upper area of the arm” and in the abdomen at 10 minutes and at 30 minutes. […] At this moment, the product of example 1 was applied to the burn of the abdomen. 2 daily applications of the product of example 1 were done to the burn during the next 3 days. […] At this moment, the product of example 2 was applied to the burn of the “upper area of the arm”. 3 daily applications of the product of example 2 were done to the burn.
# [5] = Absorption test on cellulose paper; assay type: physicochemical
# Description: A comparative test of the absorption of the depolymerized compounds of the invention and the non-depolymerized compounds was carried out. To do this, partially depolymerized silver chondroitin sulfate (example 1) and high molecular weight silver chondroitin sulfate (comparative example 8) were dissolved separately with water at the same concentration (10% by weight/volume). Once the products were completely dissolved it was noted that the viscosity of the product of example 1 was lower than that of the product of the comparative example 8. 10 mL of each product were applied on cellulose paper.
# [6] = Acute oral toxicology test (OECD Guideline No. 420, fixed dose); assay type: in vivo; set-up: median lethal oral dose (LD50): unit not given here
# Description: An acute oral toxicology test of partially depolymerized silver chondroitin sulfate (example 1) was carried out to assess the oral toxicity and identify the corresponding classification (GHS, Globally Harmonised Classification System for Chemical Substances and Mixtures). The study was conducted according to the OECD Guideline No. 420 (fixed dose).
# [7] = after 5 hours of exposure to ambient light
Molecule,areolar or halo diameter (S. Aureus),areolar or halo diameter (E. Coli),displacement time [2] [s],color (visual inspection) ([3]; after 1 hour in the dark),"color (visual inspection) [3, 7]",color (visual inspection) ([3]; after 12 hours in the dark),also measured
"O=[N+]([O-])[O-].[Ag+] [comparative example 11, AgNO3]",6,8,,,,,"side effects by visual inspection ([1]; topical, after 8 hours): irritation, itching, burning and a halo or aureole; side effects by visual inspection ([1]; topical, after the third day): increase of the diameter of the aureole of the burn; side effects by visual inspection ([1]; topical, parts where product was applied, after 60 minutes): irritation, itching and burning; side effects by visual inspection ([1]; topical, upper area of the arm and abdomen, at 10 minutes and at 30 minutes): irritation; side effects by visual inspection ([1]; topical, upper area of the arm, after the fourth day): increase of the diameter of the aureole of the burn; side effects by visual inspection ([1]; topical, upper area of the arm, after the seventh day): diameter of the aureole of the burn increased"
High Molecular Weight Silver Chondroitin Sulfate [comparative example 8],8,7,30,white,dark red,white,
High Molecular Weight Silver Hyaluronate [comparative example 9],8,8,300,,,,
Partially Depolymerized Gold Chondroitin Sulfate [example 3],8,9,,,,,"problems of darkening, irritation, itching or inflammation ([1]; in vivo): did not have problems of darkening, irritation, itching or inflammation; side effects by visual inspection ([1]; in vivo): no relevant behavior"
Partially Depolymerized Gold Hyaluronate [example 4],6,4,,,,,
Partially Depolymerized Silver Chondroitin Sulfate (Without Bleaching Step) [comparative example 7],,,,white,dark red,white,
Partially Depolymerized Silver Chondroitin Sulfate [example 1],6,7,1,white,white,white,"efficacy in skin surfaces with burns or wounds [4]: produce an improvement; burn healing (visual) ([4]; silver nitrate burn of the abdomen, 2 daily applications from third day, observed after the fourth day): nearly full disappearance of the burn; viscosity relative to comparative example 8 ([5]; 10% by weight/volume in water): lower; absorption on cellulose paper relative to comparative example 8 ([5]; 10 mL of 10% w/v solution applied on cellulose paper): absorbed more rapidly; GHS classification ([6]; Globally Harmonised Classification System): 5; median lethal oral dose (LD50) ([6]; OECD Guideline No. 420 fixed dose): > 2000; side effects by visual inspection ([1]; topical, all areas applied, all inspections from 10 minutes to 9 days): no relevant behavior; problems of darkening, irritation, itching or inflammation ([1]; topical, overall conclusion, unlike silver nitrate): did not have problems of darkening, irritation, itching or inflammation"
Partially Depolymerized Silver Hyaluronate [example 2],6,7,1,,,,"efficacy in skin surfaces with burns or wounds [4]: produce an improvement; burn healing (visual) ([4]; silver nitrate burn of the upper area of the arm, 3 daily applications from seventh day, observed after the ninth day): almost completely disappeared; problems of darkening, irritation, itching or inflammation ([1]; in vivo): did not have problems of darkening, irritation, itching or inflammation; side effects by visual inspection ([1]; in vivo): no relevant behavior"
Partially Depolymerized Ssilver Chondroitin Sulfate (Bleaching Agent: Sodium Metabisulfite) [comparative example 5],,,,reddish,black,reddish to black,
sodium chondroitin sulfate [comparative example 10],0,0,,,,,
